Measured values as given in patent US20230373952A1, “LACTAM COMPOUNDS AS Kv1.3 POTASSIUM SHAKER CHANNEL BLOCKERS” (D.E. Shaw Research, LLC, priority 2020, published 2023).

Key:
[1] = molecular target: T1, Kv1.3 potassium channel (Homo sapiens, UniProt P22001); test: Kv1.3 potassium channel blocker activity, automated whole-cell patch clamp (Patchliner); format: cell-based; conditions: CHO-K1 cells stably expressing Kv1.3; whole-cell current inhibition, Hill fit; read-out: Kv1.3 IC50
T1 construct: expressed in transfected cells
T1 sequence (P22001 whole entry): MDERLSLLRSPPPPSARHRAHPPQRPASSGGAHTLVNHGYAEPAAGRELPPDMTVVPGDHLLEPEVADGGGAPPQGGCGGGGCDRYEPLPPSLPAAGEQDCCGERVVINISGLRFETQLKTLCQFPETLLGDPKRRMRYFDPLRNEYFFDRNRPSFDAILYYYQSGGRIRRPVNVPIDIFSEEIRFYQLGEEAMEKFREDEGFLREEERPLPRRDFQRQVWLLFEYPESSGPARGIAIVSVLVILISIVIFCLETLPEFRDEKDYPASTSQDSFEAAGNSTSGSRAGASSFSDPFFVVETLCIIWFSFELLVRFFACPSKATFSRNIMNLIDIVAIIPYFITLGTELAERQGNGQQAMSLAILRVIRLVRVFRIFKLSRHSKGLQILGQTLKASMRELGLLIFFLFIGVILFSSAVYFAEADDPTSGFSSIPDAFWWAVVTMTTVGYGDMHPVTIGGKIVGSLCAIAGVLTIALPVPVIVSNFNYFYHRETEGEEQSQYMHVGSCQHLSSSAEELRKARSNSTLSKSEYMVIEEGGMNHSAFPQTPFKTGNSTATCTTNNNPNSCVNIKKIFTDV
Protocol: CHO-K1 cells stably expressing Kv1.3 were grown in DMEM containing 10% heat-inactivated FBS, 1 mM sodium pyruvate, 2 mM L-glutamine and G418 (500 μg/ml).
The currents were evoked by applying 100 ms depolarizing pulses from −90 mV (holding potential) to +40 mV were applied with 0.1 Hz frequency. […] 10-second breaks were used between pulse trains (see Table H below).
Passive leak currents were subtracted online using a P/4 procedure (HEKA Elektronik Dr. Schulze GmbH). […] Total compound incubation time before the next pulse train was not longer than 10 seconds. Peak current inhibition was observed during compound equilibration.

[2] = molecular target: hERG channel (Homo sapiens, UniProt Q12809); test: cell-based
Sequence of hERG channel (Q12809 whole entry): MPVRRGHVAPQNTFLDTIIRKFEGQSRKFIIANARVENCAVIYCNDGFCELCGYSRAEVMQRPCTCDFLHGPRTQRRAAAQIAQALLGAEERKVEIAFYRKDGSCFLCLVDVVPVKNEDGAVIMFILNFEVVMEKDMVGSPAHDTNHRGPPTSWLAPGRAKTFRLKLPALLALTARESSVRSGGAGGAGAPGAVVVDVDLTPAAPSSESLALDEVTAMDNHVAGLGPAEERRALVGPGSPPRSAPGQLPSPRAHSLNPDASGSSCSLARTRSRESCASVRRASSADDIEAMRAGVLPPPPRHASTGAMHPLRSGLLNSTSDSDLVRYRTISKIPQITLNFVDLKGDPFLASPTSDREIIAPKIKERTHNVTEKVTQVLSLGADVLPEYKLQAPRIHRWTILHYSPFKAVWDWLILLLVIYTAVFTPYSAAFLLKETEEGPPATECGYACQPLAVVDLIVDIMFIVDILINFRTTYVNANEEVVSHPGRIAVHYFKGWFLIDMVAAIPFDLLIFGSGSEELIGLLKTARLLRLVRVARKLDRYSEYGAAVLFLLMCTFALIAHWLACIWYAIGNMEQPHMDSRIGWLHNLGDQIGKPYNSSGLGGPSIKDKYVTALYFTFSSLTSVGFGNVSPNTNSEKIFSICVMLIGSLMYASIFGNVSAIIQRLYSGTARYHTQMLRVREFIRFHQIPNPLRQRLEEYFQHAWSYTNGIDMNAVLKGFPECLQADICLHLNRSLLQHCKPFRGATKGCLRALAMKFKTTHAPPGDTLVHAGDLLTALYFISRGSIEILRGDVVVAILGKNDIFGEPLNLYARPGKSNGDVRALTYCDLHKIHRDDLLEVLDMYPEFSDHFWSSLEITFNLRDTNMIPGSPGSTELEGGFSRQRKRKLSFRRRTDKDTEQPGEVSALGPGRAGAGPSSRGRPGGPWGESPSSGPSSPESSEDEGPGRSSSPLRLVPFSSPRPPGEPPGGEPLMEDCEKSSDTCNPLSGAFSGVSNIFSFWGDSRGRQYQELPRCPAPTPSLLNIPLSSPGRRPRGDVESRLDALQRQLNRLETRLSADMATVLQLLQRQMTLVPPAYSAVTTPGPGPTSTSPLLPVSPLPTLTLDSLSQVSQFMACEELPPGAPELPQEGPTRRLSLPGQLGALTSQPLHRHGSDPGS
Protocol: This assay is used to evaluate the disclosed compounds' inhibition activities against the hERG channel.
CHO-K1 cells stably expressing hERG were grown in Ham's F-12 Medium with glutamine containing 10% heat-inactivated FBS, 1% penicillin/streptomycin, hygromycin (100 μg/ml) and G418 (100 μg/ml). Cells were grown in culture flasks at 37° C. in a 5% CO2-humidified incubator.
All compounds were dissolved in DMSO at 30 mM. Compound stock solutions were freshly diluted with external solution to concentrations of 30 nM, 100 nM, 300 nM, 1 μM, 3 μM, 10 μM, 30 μM and 100 μM. The highest content of DMSO (0.3%) was present in 100 μM.
The voltage protocol (see Table I) was designed to simulate voltage changes during a cardiac action potential with a 300 ms depolarization to +20 mV (analogous to the plateau phase of the cardiac action potential), a repolarization for 300 ms to −50 mV (inducing a tail current) and a final step to the holding potential of −80 mV. The pulse frequency was 0.3 Hz. Control (compound-free) and compound pulse trains for each compound concentration applied contained 70 pulses.
Whole-cell current recordings and compound application were enabled by means of an automated patch clamp platform Patchliner (Nanion). EPC 10 patch clamp amplifier (HEKA) along with Patchmaster software (HEKA Elektronik Dr. Schulze GmbH) was used for data acquisition. Data were sampled at 10 kHz without filtering. Increasing compound concentrations were applied consecutively to the same cell without washouts in between.
AUC and PEAK values were obtained with Patchmaster (HEKA Elektronik Dr. Schulze GmbH). To determine IC50 the last single pulse in the pulse train corresponding to a given compound concentration was used. Obtained AUC and PEAK values in the presence of compound were normalized to control values in the absence of compound.

Row | Compound | IC50 [1] [µM] | IC50 [2] [µM]
1 | C[C@H]1[C@H](c2c(O)ccc(Cl)c2Cl)NC(=O)N1CCCO (relative stereo) [Compound 101, (4S,5S)-rel-4-(2,3-dichloro-6-hydroxyphenyl)-1-(3-hydroxypropyl)-5-methylimidazolidin-2-one] | < 0.1 | > 30
2 | O=C1CC(c2c(O)ccc(Cl)c2Cl)CCN1C1CCNC1 (single isomer, unassigned) [Compound 1, 4-(2,3-dichloro-6-hydroxyphenyl)-1-[pyrrolidin-3-yl]piperidin-2-one] | < 0.1 | > 30
3 | O=C1C[C@@H](c2c(O)ccc(Cl)c2Cl)CCN1[C@H]1CCNC1 (single isomer, unassigned) [Compound 2, 4-(2,3-dichloro-6-hydroxyphenyl)-1-[pyrrolidin-3-yl]piperidin-2-one] | < 0.1 | > 30
4 | O=C1C[C@H](c2c(O)ccc(Cl)c2Cl)CCN1[C@@H]1CCNC1 (single isomer, unassigned) [Compound 3, 4-(2,3-dichloro-6-hydroxyphenyl)-1-[pyrrolidin-3-yl]piperidin-2-one] | < 1 | 
5 | O=C1C[C@@H](c2c(O)ccc(Cl)c2Cl)CCN1[C@@H]1CCNC1 (single isomer, unassigned) [Compound 4, 4-(2,3-dichloro-6-hydroxyphenyl)-1-[pyrrolidin-3-yl]piperidin-2-one] | < 1 | 
6 | O=C1CC[C@@H](c2c(O)ccc(Cl)c2Cl)CN1[C@@H]1CCNC1 (single isomer, unassigned) [Compound 5, 5-(2,3-dichloro-6-hydroxyphenyl)-1-[pyrrolidin-3-yl]piperidin-2-one] | < 0.1 | > 30
7 | O=C1CC[C@@H](c2c(O)ccc(Cl)c2Cl)CN1[C@H]1CCNC1 (single isomer, unassigned) [Compound 6, 5-(2,3-dichloro-6-hydroxyphenyl)-1-[pyrrolidin-3-yl]piperidin-2-one] | < 1 | 
8 | O=C1CC[C@H](c2c(O)ccc(Cl)c2Cl)CN1[C@H]1CCNC1 (single isomer, unassigned) [Compound 7, 5-(2,3-dichloro-6-hydroxyphenyl)-1-[pyrrolidin-3-yl]piperidin-2-one] | < 0.1 | > 30
9 | O=C1N[C@@H](c2c(O)ccc(Cl)c2Cl)CCN1[C@H]1CCNC1 (single isomer, unassigned) [Compound 8, 4-(2,3-dichloro-6-hydroxyphenyl)-1-[pyrrolidin-3-yl]-tetrahydropyrimidin-2(1H)-one] | < 1 | 
10 | O=C1N[C@@H](c2c(O)ccc(Cl)c2Cl)CCN1[C@@H]1CCNC1 (single isomer, unassigned) [Compound 9, 4-(2,3-dichloro-6-hydroxyphenyl)-1-[pyrrolidin-3-yl]-tetrahydropyrimidin-2(1H)-one] | < 1 | > 10
11 | O=C1N[C@H](c2c(O)ccc(Cl)c2Cl)CCN1[C@H]1CCNC1 (single isomer, unassigned) [Compound 10, 4-(2,3-dichloro-6-hydroxyphenyl)-1-[pyrrolidin-3-yl]-tetrahydropyrimidin-2(1H)-one] | < 1 | 
12 | O=C1N[C@H](c2c(O)ccc(Cl)c2Cl)CCN1[C@@H]1CCNC1 (single isomer, unassigned) [Compound 11, 4-(2,3-dichloro-6-hydroxyphenyl)-1-[pyrrolidin-3-yl]-tetrahydropyrimidin-2(1H)-one] | < 1 | > 10
13 | O=C1C[C@@H](c2c(O)ccc(Cl)c2Cl)CN1[C@H]1CCNC1 (single isomer, unassigned) [Compound 12, 4-(2,3-dichloro-6-hydroxyphenyl)-[1,3-bipyrrolidin]-2-one] | < 1 | > 30
14 | O=C1C[C@@H](c2c(O)ccc(Cl)c2Cl)CN1[C@H]1CCOC1 (single isomer, unassigned; isomer 1) [Compound 27] | < 1 | 
15 | C[C@@H](O)CCN1C[C@H](c2c(O)ccc(Cl)c2Cl)CC1=O (single isomer, unassigned; isomer 1) [Compound 47] | < 0.1 | 
16 | C[C@H]1C(=O)N(C2CNC2)C[C@H]1c1c(O)ccc(Cl)c1Cl (single isomer, unassigned; isomer 1) [Compound 87, 1-(azetidin-3-yl)-4-(2,3-dichloro-6-hydroxyphenyl)-3-methylpyrrolidin-2-one isomer 1] | < 1 | 
17 | O=C1CN[C@@H](c2c(O)ccc(Cl)c2Cl)CN1C1CNC1 (single isomer, unassigned; isomer 1) [Compound 97, 1-(azetidin-3-yl)-5-(2,3-dichloro-6-hydroxyphenyl)piperazin-2-one isomer 1] | < 1 | 
18 | O=C1C[C@@H](c2c(O)ccc(Cl)c2Cl)CN1C1CCOC1 (single isomer, unassigned; isomer 2) [Compound 28] | < 1 | 
19 | C[C@H](O)CCN1C[C@H](c2c(O)ccc(Cl)c2Cl)CC1=O (single isomer, unassigned; isomer 2) [Compound 48] | < 0.1 | 

Row | Compound | IC50 [1] [µM] | IC50 [2] [µM]
20 | C[C@@H]1C(=O)N(C2CNC2)C[C@H]1c1c(O)ccc(Cl)c1Cl (single isomer, unassigned; isomer 2) [Compound 88, 1-(azetidin-3-yl)-4-(2,3-dichloro-6-hydroxyphenyl)-3-methylpyrrolidin-2-one isomer 2] | < 10 | 
21 | O=C1CO[C@@H](c2c(O)ccc(Cl)c2Cl)CN1CCO (single isomer, unassigned; isomer 2) [Compound 96, 6-(2,3-dichloro-6-hydroxyphenyl)-4-(2-hydroxyethyl)morpholin-3-one isomer 2] | < 30 | 
22 | O=C1CN[C@H](c2c(O)ccc(Cl)c2Cl)CN1C1CNC1 (single isomer, unassigned; isomer 2) [Compound 98, 1-(azetidin-3-yl)-5-(2,3-dichloro-6-hydroxyphenyl)piperazin-2-one isomer 2] | < 30 | 
23 | C[C@H]1C(=O)N(C2CNC2)C[C@@H]1c1c(O)ccc(Cl)c1Cl (single isomer, unassigned; isomer 3) [Compound 89, 1-(azetidin-3-yl)-4-(2,3-dichloro-6-hydroxyphenyl)-3-methylpyrrolidin-2-one isomer 3] | < 10 | 
24 | CC1[C@@H](c2c(O)ccc(Cl)c2Cl)CC(=O)N1C[C@H](O)CO (stereo in doubt) [Compound 78, (4R,5R)-4-(2,3-dichloro-6-hydroxyphenyl)-1-[(2S)-2,3-dihydroxypropyl]-5-methylpyrrolidin-2-one] | < 10 | 
25 | CC1[C@@H](c2c(O)ccc(Cl)c2Cl)CC(=O)N1CCO (stereo in doubt) [Compound 80, (4R,5R)-4-(2,3-dichloro-6-hydroxyphenyl)-1-(2-hydroxyethyl)-5-methylpyrrolidin-2-one] | < 10 | 
26 | O=C1C[C@@H](c2c(O)ccc(Cl)c2Cl)CN1C(CO)CO [Compound 18, (4S)-4-(2,3-dichloro-6-hydroxyphenyl)-1-(1,3-dihydroxypropan-2-yl)pyrrolidin-2-one] | < 1 | 
27 | CC(C)(O)CCN1C[C@H](c2c(O)ccc(Cl)c2Cl)CC1=O [Compound 45, (S)-4-(2,3-dichloro-6-hydroxyphenyl)-1-(3-hydroxy-3-methylbutyl)pyrrolidin-2-one] | < 1 | 
28 | N[C@@H](CO)CN1C[C@H](c2c(O)ccc(Cl)c2Cl)CC1=O [Compound 49, (4S)-1-[(2R)-2-amino-3-hydroxypropyl]-4-(2,3-dichloro-6-hydroxyphenyl)pyrrolidin-2-one] | < 0.1 | 
29 | N[C@H](CO)CN1C[C@H](c2c(O)ccc(Cl)c2Cl)CC1=O [Compound 50, (4S)-1-[(2S)-2-amino-3-hydroxypropyl]-4-(2,3-dichloro-6-hydroxyphenyl)pyrrolidin-2-one] | < 0.1 | 
30 | Cn1cnc(N2C[C@H](c3c(O)ccc(Cl)c3Cl)CC2=O)c1 [Compound 59, (S)-4-(2,3-dichloro-6-hydroxyphenyl)-1-(1-methyl-1H-imidazol-4-yl)pyrrolidin-2-one] | < 1 | 
31 | Cc1cc(N2C[C@H](c3c(O)ccc(Cl)c3Cl)CC2=O)sn1 [Compound 60, (S)-4-(2,3-dichloro-6-hydroxyphenyl)-1-(3-methylisothiazol-5-yl)pyrrolidin-2-one] | < 1 | 
32 | O=C1C[C@@H](c2c(O)ccc(Cl)c2Cl)CN1c1cccnc1 [Compound 63, (S)-4-(2,3-dichloro-6-hydroxyphenyl)-1-(pyridin-3-yl)pyrrolidin-2-one] | < 1 | 
33 | O=C1C[C@@H](c2c(O)ccc(Cl)c2Cl)CN1c1cnn(CCO)c1 [Compound 69, (S)-4-(2,3-dichloro-6-hydroxyphenyl)-1-(1-(2-hydroxyethyl)-1H-pyrazol-4-yl)pyrrolidin-2-one] | < 0.1 | 
34 | Cc1cc(N2C[C@H](c3c(O)ccc(Cl)c3Cl)CC2=O)no1 [Compound 73, (S)-4-(2,3-dichloro-6-hydroxyphenyl)-1-(5-methylisoxazol-3-yl)pyrrolidin-2-one] | < 10 | 
35 | C[C@H]1[C@@H](c2c(O)ccc(Cl)c2Cl)CC(=O)N1C1CNC1 [Compound 83, (4R,5S)-1-(azetidin-3-yl)-4-(2,3-dichloro-6-hydroxyphenyl)-5-methylpyrrolidin-2-one] | < 10 | 
36 | C[C@@H]1[C@H](c2c(O)ccc(Cl)c2Cl)CC(=O)N1CCO [Compound 84, (4S,5R)-4-(2,3-dichloro-6-hydroxyphenyl)-1-(2-hydroxyethyl)-5-methylpyrrolidin-2-one] | < 1 | 
37 | C[C@H]1[C@@H](c2c(O)ccc(Cl)c2Cl)CC(=O)N1CCO [Compound 85, (4R,5S)-4-(2,3-dichloro-6-hydroxyphenyl)-1-(2-hydroxyethyl)-5-methylpyrrolidin-2-one] | < 30 | 
38 | N[C@@H]1C(=O)N(C2CNC2)C[C@H]1c1c(O)ccc(Cl)c1Cl [Compound 91, (3S,4R)-3-amino-1-(azetidin-3-yl)-4-(2,3-dichloro-6-hydroxyphenyl)pyrrolidin-2-one] | < 10 | 
